The values that follow come from patent US9623021B2, “Nuclear receptor binding agents” (GTX, Inc., priority 2007, dated 2017).

Series [1] deals with T1, ER-α (Rattus norvegicus (Rat), UniProt P06211). Type of series: cell-based. Conditions: 100 nM NRBA compared to 1 nM estradiol. The method, boiled down: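 COS or 293 cells in phenol red-free medium with charcoal-stripped FBS, transfected with a 2×ERE firefly luciferase reporter, CMV-Renilla control and rat-cloned receptor. Compounds, estrogen or DHT added 24 h post transfection, alone or combined; firefly and Renilla luciferase read 48 h after transfection.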

Series [2] concerns the target T1, ER-α. The experiment in a line: Transient transfection and reporter gene assay, ER-α, HEK-293 cells (Example 22A). Type of series: cell-based. Conditions: ERE-LUC. The method, then: Human estrogen receptors (ER-α and ER-β) were cloned from prostate cDNA into a pCR3.1 plasmid vector backbone. PGC-1 was cloned into mammalian two hybrid vector pACT. ER-β H475 was mutated to alanine using site-directed mutagenesis. Sequencing was performed to determine the absence of any non specific mutations. SHP promoter (−572 to +10) (26) was cloned into pGL3 basic LUC reporter vector and human FXR was cloned into pCR3.1. HEK-293 cells were plated at 100,000 cells per well of a 24 well plate in […] (DMEM)+5% charcoal-stripped fetal bovine serum (csFBS). The cells were transfected using Lipofectamine (Invitrogen, Carlsbad, Calif.) with 0.25 μg ERE-LUC, 0.02 μg CMV-LUC (renilla luciferase) and 12.5 ng of rat ER-α or 25 ng rat ER-β. […] Luciferase assays were performed 48 hrs after transfection.
To determine if the selectivity in ER binding also translated into ER-β-selective activity, transient transactivation assays were performed in HEK-293 cells transfected with plasmids encoding ER-α or ER-β and ERE-LUC. The cells were treated with varying concentrations of the ligands and their EC50 values were determined.
For orientation: In a reporter assay the amount or activity of a reporter protein is the signal.

The test system of series [3] is Ishikawa endometrial cells. The series can be described thus: Ishikawa growth assay (alkaline phosphatase). The class given is cell-based. The protocol: Ishikawa cells were plated at 15,000 cells/well in 24 well plates in DME:F12 (1:1)+5% csFBS w/o phenol red. The cells were maintained in this medium at 37° C. for 3 days. Medium was changed immediately prior to drug treatment for an additional 72 hrs. After 72 hrs, the cells were fixed with formalin and the amount of alkaline phosphatase (ALP) measured by para-nitrophenyl phosphate method.
This effect is one potential concern in the development of ER-α SERMs.

The test system of another series is ovariectomized mice. The series can be described thus: Ovariectomy-induced obesity model (postmenopausal obesity). The class given is in vivo, female C57BL6 mice. Conditions: OVX mice. The protocol:
For the ovariectomy-induced obesity model, 6 week old female C57BL6 mice were sham operated or ovariectomized and the study was carried out for 9 weeks as indicated above.
Since it was shown that β-SERMs affected body composition in an animal model of high fat diet-induced obesity, they might also be effective in an animal model of postmenopausal obesity.

In the next series the test system is PPAR-α. The series can be described thus: PPAR-α transactivation (PPRE-LUC) in HEK-293 cells co-transfected with ER-β. The class given is cell-based. As to conditions: FIG. 12A right panel. The method, then: FIG. 12 depict the effect of ER-β ligand on PPAR-γ function through ligand binding domain (LBD). (A). HEK-293 cells were transfected with 0.25 μg PPRE-LUC, 5 ng CMV-renilla LUC and the indicated receptors (PPAR-γ and ER-β for the left panel and PPAR-α and ER-β for the right panel). The cells were treated 24 hrs after transfection with the indicated ligands and harvested 48 hrs after transfection and firefly luciferase activity was measured and normalized to renilla luciferase. (B). H475 in ER-β LBD is important for its function. H475 in ER-β LBD was mutated to alanine (A) using a site directed mutagenesis kit. Transactivation assay was performed as described in panel A in HEK-293 cells with a titration of ER-β ligands in wild type or ER-β H475A. (C). […] The cells were treated 24 hrs after transfection with the indicated ligands and harvested 48 hrs after transfection and firefly luciferase activity was measured and normalized to renilla luciferase. […] The cells were treated 24 hrs after transfection with the indicated ligands and harvested 48 hrs after transfection and firefly luciferase activity was measured and normalized to renilla luciferase. […] The cells were treated 24 hrs after transfection with the indicated ligands and harvested 48 hrs after transfection and firefly luciferase activity was measured and normalized to renilla luciferase. […]

Series [4] relates to LNCaP prostate cancer cells. The series can be described thus: LNCaP prostate cancer cell proliferation (3H thymidine incorporation). The class given is cell-based. As to conditions: treated for 6 days, FIG. 21. The method, then:
The effects of treatment of an ER-β selective NRBA of this invention on cancer cell proliferation was examined using LNCaP prostate cancer cells and C-26 colon cancer cells. LNCaP or C-26 cells were plated in growth medium in 24 well and 6 well plates, respectively. LNCaP cells were treated for 6 days and C-26 cells were treated for 3 days at the indicated concentration. ^3H thymidine incorporation was measured at the end of treatment as an indicator of cell proliferation.
On the technique in general: Uptake of a labelled nucleoside into DNA is a usual measure of proliferation.

A further series concerns ARPE-19 cells. The series can be described thus: Fluorescent detection of intracellular ROS in ARPE-19 cells (tBH oxidative stress). As to conditions: 150 μM tBH, FIG. 20B.

In the case of `O=c1c2c(O)cc(O)cc2c(Br)cn1-c1ccc(O)cc1` [Compound 12u, 4-bromo-6,8-dihydroxy-2-(4-hydroxyphenyl)isoquinolin-1(2H)-one], the “Estradiol activity at 100 nM, ER-α” value at ER-α [1] is 62%. At ER-α [2], the “function at ER-α in transactivation” value was “agonists”. Further, the Ishikawa cell proliferation result in series [3] (FIG. 3C) was “weakly induce”. In series [3] (highest concentration tested, ALP assay, 72 hrs), the “concentration at which proliferation of Ishikawa cells was induced” value is 1 µM. For the same compound, the body weight gain entry in the series on ovariectomized mice (9 weeks, FIG. 11A) is “did not inhibit body weight gain”. Further, in the series with ovariectomized mice (FIG. 11B), the feed consumption result is reported as “increased the feed consumption”. Besides, in the series on ovariectomized mice (FIG. 11C left panel), the “fat mass (MRI)” value is recorded as “completely prevented the increase in fat mass”. The “lean mass (MRI)” value with ovariectomized mice (FIG. 11C right panel) was “significantly increased lean mass”. Moreover, in the series with ovariectomized mice (FIG. 11D), the WAT weight result is listed as “completely inhibited the WAT accrued due to OVX” and the uterine weight entry was “without affecting uterine weight”. For the same compound, the “WY14643 induced PPAR-α transactivation” value with PPAR-α is listed as “did not affect”. In series [4], the “growth of LNCaP prostate cancer cells” value is recorded as “significantly inhibited the growth”. The “prevention of ROS formation / oxidative damage” value with ARPE-19 cells was “did not seem to have any effect”.
